# Data taken from patent publication US9616075B2, “Method of treating and preventing brain impairment using Na+-K+-2Cl-cotransporter isoform 1 inhibitors” (University of Rochester, priority 2012, dated 2017).
# Where two headings read alike, the source gives them in different places.
# Key:
# [1] = tested on: cortical inhibitory networks; experiment: Paired-pulse whisker stimulation (paired-pulse ratio, cortical inhibitory function) in awake mice; assay type: in vivo, mouse; settings: for Paired-pulse ratio (PPR): awake mice
# Description: (§1) Recordings were analyzed offline using pClamp 10.2.
# Next, it was investigated how cortical ammonia toxicity leads to neurological dysfunction and seizures. […] Neurobiol. […] The whisker stimulation paradigm elicits two successive field excitatory post-synaptic potentials (fEPSP), where the second fEPSP has lower amplitude due to activation of cortical inhibitory networks (quantified by a paired-pulse ratio (PPR)<1).
# awake mice = experiment: Myoclonic event (ME) frequency on EEG in awake mice; assay type: in vivo, mouse
# Description: Electrophysiological Recordings—In vivo recordings were obtained from layer II somatosensory cortex. In situ recordings were obtained from layer II in coronal cortical slices prepared from P21-30 mice. ISMs of K^+ and NH4^+ were pulled from double-barreled pipette glass (PB150-6, WPI) with a tip of 1-3 μm. The pipettes were silanized (coated) with dimethylsilane I (Fluka, Sigma) and filled with either K^+ ionophore I cocktail B (Fluka, selectivity coefficient −1.8 log(K^+/NH4^+)) or NH4+ ionophore I cocktail B (Fluka, −0.9 log(NH4^+/K^+)). […] Electroencephalogram (EEG) signals were externally filtered at 6 Hz (Filter Butterworth Model by Encore, Axopatch 200B by Axon Instruments), band pass filtered at 1-100 Hz and digitized (Digidata 1440A by Axon Instruments). Ion-sensitive microelectrode (ISM) signals were amplified (FD223a by WPI), externally filtered and digitized as above, and reference field potential traces were subtracted. In selected experiments, wireless electromyogram (EMG) and electroencephalogram (EEG) electrodes were implanted (DSI Physiotel®), and an extracellular microelectrode was placed in the thalamus (ventrobasal complex). Recordings were analyzed offline using pClamp 10.2. Myoclonic events (ME) were defined on the EEG as single or multiple 3-9 Hz polyspike and wave discharges (SWD) of 0.2-2 second duration associated with myoclonic jerks determined by video recording, EMG or direct observation.
# Otc^spf-ash mice [2] = experiment: NH4+ and K+ ion-sensitive microelectrode (ISM) recordings from cortex of awake mice; settings: mean±SEM
# Description: Body temperature was maintained with a heating pad. For systemic drug treatment, a polyethylene intraperitoneal (i.p.) catheter was surgically implanted to deliver drugs accurately and with minimal manipulation. For cortical drug application artificial cerebrospinal fluid (aCSF) was perfused across the cortex of awake mice at a rate of 2 mL/minute, into a custom-made well with ˜200 μL volume, through tubing with ˜100 μL volume, meaning the entire volume bathing the brain was exchanged approximately every 9 seconds.
# Electrophysiological Recordings—In vivo recordings were obtained from layer II somatosensory cortex. […] ISMs of K^+ and NH4^+ were pulled from double-barreled pipette glass (PB150-6, WPI) with a tip of 1-3 μm. The pipettes were silanized (coated) with dimethylsilane I (Fluka, Sigma) and filled with either K^+ ionophore I cocktail B (Fluka, selectivity coefficient −1.8 log(K^+/NH4^+)) or NH4+ ionophore I cocktail B (Fluka, −0.9 log(NH4^+/K^+)). […] Ion-sensitive microelectrode (ISM) signals were amplified (FD223a by WPI), externally filtered and digitized as above, and reference field potential traces were subtracted.
# Ion Sensitive Microelectrode (ISM) Fabrication—Ion Sensitive Microelectrodes (ISMs) of K^+ and NH4^+ were pulled from double-barreled pipette glass (PB150-6, WPI) with a tip of 1-3 μm. The pipettes were silanized (coated) with dimethylsilane I (Fluka, Sigma). […] The K^+ ionophore has a selectivity coefficient relative to NH4^+ of −1.8 log (K^+/NH4^+), and the NH4^+ ionophore has a selectivity coefficient relative to K^+ of −0.9 log (NH4^+/K^+). […] The reference barrels were used to record the DC potentials and were filled with 0.15 M NaCl. In selected experiments, single barrel electrodes were also used in combination with single reference electrodes. K^+ and NH4^+ ISM traces were subtracted for interference by calculating the mV response to the increase of the other ion in calibration solutions. All ISMs were calibrated before and after each experiment. […] Calibration data were fitted to the Nikolsky equation to determine electrode slope and interference.
# NKCC1 [3] = settings: NKCC1 knock-out Slc12a2^−/−
# Description: as §1
# (§2) Because EGABA is heavily dependent on chloride transporters, the diuretic bumetanide was next tested, a highly specific NKCC1 inhibitor used in clinical practice to treat heart failure. Hannaert et al., “Rat NKCC2/NKCC1 Cotransporter Selectivity For Loop Diuretic Drugs,” Naunyn Schmiedebergs Arch. Pharmacol. 365:193-199 (2002); Dzhala et al., “NKCC1 Transporter Facilitates Seizures in the Developing Brain,” Nat. […] To ensure the molecular specificity of bumetanide, gramicidin-perforated patch recordings were also performed in conditional NKCC1 knock-out (Slc12a2^−/−) and wild-type littermates (Slc12a2′^+/+).
# NKCC1 [4] = molecular target: NKCC1 (Mus musculus, UniProt P55012); settings: wild-type Slc12a2^+/+
# NKCC1 (Mus musculus, UniProt P55012), sequence (P55012 whole entry): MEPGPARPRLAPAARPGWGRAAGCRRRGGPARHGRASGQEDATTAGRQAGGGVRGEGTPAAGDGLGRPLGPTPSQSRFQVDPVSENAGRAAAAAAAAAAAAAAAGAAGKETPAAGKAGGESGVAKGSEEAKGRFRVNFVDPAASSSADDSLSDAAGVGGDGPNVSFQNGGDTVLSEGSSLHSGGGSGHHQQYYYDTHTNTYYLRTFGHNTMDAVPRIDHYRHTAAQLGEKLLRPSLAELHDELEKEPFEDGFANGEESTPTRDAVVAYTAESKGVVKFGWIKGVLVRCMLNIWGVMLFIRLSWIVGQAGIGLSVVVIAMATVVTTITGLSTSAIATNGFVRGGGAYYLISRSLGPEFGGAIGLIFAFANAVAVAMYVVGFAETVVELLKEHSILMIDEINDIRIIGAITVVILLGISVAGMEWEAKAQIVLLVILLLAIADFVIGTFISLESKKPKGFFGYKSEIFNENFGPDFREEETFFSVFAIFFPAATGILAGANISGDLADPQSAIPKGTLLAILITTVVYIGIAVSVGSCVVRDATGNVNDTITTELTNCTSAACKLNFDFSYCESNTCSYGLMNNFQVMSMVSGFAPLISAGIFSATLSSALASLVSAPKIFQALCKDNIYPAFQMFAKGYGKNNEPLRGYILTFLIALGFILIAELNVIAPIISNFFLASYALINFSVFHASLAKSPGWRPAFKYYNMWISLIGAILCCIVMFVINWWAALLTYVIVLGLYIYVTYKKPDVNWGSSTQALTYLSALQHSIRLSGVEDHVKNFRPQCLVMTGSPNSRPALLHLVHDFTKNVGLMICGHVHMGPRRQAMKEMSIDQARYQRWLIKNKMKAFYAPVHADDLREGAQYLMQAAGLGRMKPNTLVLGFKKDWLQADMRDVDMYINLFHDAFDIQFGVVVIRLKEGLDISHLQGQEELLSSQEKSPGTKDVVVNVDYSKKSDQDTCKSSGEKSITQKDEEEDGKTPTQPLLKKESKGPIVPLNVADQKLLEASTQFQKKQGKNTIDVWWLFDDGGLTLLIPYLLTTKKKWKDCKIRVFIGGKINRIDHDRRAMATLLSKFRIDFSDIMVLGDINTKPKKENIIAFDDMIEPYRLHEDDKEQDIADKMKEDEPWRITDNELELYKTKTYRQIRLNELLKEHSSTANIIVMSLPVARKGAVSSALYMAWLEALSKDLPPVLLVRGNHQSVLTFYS
# Description: as §1, §2
# [5] = 1H-NMR brain amino acid concentrations; assay type: in vivo, mouse; settings: 30 minutes after administration, mean±SEM
# Description: ^1H-NMR Spectroscopy—Mice were anesthetized using 1.5% isoflurane and decapitated. Forebrains (whole brain minus cerebellum/brainstem) were quickly extracted, frozen in liquid nitrogen, and homogenized in 7.5 mL 12% PCA at 0° C. using a micro-sonicator. The homogenate was centrifuged at 25,000 G for 15 minutes, and the supernatants were neutralized to pH 7.0 with KOH over an ice bath. A further 15 minute centrifugation (25,000 G) separated the resultant KClO4, and the supernatant was lyophilized before being reconstituted with 0.65 ml D2O. ^1H-NMR spectra were acquired using a 600 mHz Varian Unity NOVA spectrometer equipped with a triple-axis gradient HCN probe (standard room temperature). Signals were acquired following a 90° pulse with a spectral width of 7200 Hz and 32K data points. The time between pulses was 15 seconds and 64 signals were averaged for each spectrum. The sample temperature was 25° C. Integrals of the relevant peaks were converted to μmol/gram wet-weight and normalized NAA (methyl) to increase inter-sample consistency.
# astrocytes [6] = settings: n = 52 cells, mean±SEM; for Astrocyte calcium transient Freq.: awake Otc^spf-ash mice, 100 μm below pial surface
# Description: Body temperature was maintained with a heating pad.
# Two-Photon Laser Scanning Microscopy (2PLSM)—A Mai Tai laser (SpectraPhysics) attached to a confocal scanning system (Fluoview 300, Olympus) and an upright microscope (IX51W) was used. Briefly, volume changes and calcium activity were imaged in cortex 100 μm below the pial surface, as described previously, using a 60× (1.1 NA) and a 20× (0.95 NA) lens, respectively. For in vivo volumetry xyzt image series were collected (z-step 1.5 μm, every 5 minutes) with acquisition time<20 seconds and laser power<40 mW. For in vivo calcium imaging, dual channel (rhod-2 and eGFP) frames were collected at 0.2 or 2 Hz. A low sampling rate and <20 mW laser were used to avoid photo damage. […] Therefore, each animal was tested for optimal loading by performing whisker stimulation, to verify a physiological calcium response. Wang et al., “Astrocytic Ca^2+ Signalling Evoked by Sensory Stimulation In Vivo,” Nat. Neurosci. 9:816-823 (2006), which is hereby incorporated by reference in its entirety. A calcium transient was defined as an event where the relative ratio between the rhod-2 and eGFP signal intensities (ΔF/F0) was >2 standard deviations […] from baseline. Beginning and end were defined as ΔF/F0>0.5 π and <0.5 π respectively. Amplitude was taken as the peak ΔF/F0 in this interval. For in situ volumentric imaging acute cortical slices were loaded with texas red hydrazide (1.5 μM, a fixable sulforhodamine 101 derivative) in aCSF for 50 minutes. Volume and calcium recordings were analyzed using previously described custom-made software (MatLab Inc.).
# Data in Table 2 is from analysis of 2PLSM xyt series, where calcium indicator rhod-2 was used to detect astrocyte calcium transients 100 μm below the pial surface. Data are shown as mean±SEM.
# Otc^spf-ash mice [7] = experiment: Sensory-motor phenotype score; assay type: in vivo, mouse; settings: Otc^spf-ash mice after systemic NH4Cl load 7.5 mmol kg^−1; bumetanide 30 mg kg^−1 i.p.
# Description: Mouse movement and seizure activity were omitted from this score, because it was desired that these manifestations be independently and more quantitatively represented. The score thus consisted of four elements: hyperacusis (0-2), imbalance (0-3), ataxia/tremor (0-3) and level of consciousness (0-3). A maximum score of 11 represents deep coma (no corneal reflex) whilst 0 represents normal wakefulness. Each animal was scored after the first 5 minutes and then every 15 minutes as they progressed through the stereotypical stages of ammonia neurotoxicity. […] Ataxia/tremor was scored using a gait test, where the mouse was encouraged to walk for a short distance. […] Consciousness was scored as either 0 for awake, 1 loss of scatter reflex, 2 loss of righting reflex (LORR), 3 loss of corneal reflex.
# Otc^spf-ash mice [8] = experiment: Automated video analysis of spontaneous mouse movement; assay type: in vivo; settings: Otc^spf-ash mice after systemic NH4Cl load 7.5 mmol kg^−1; bumetanide 30 mg kg^−1 i.p.
# Description: Otc^spf-ash mice were crossed with Glt-1-eGFP mice for imaging experiments. C57BL/6J mouse and Wistar rat pups were obtained from Jackson Laboratories. To analyze cognitive abilities in OTC mice, two commercial conditioning chambers (H10-11M-TC, Coulbourn Instruments) were adapted for contextual fear conditioning. Over the course of 4 days, mice were trained via a tone/shock protocol and trained to fear contextual and auditory cues. […] Automated movement analysis was performed using AnyMazeTM software analysis of CCD-camera recordings in a standard mouse cage.
# astrocytes [9] = settings: awake Otc^spf-ash mice, ammonia load
# Description: Two-Photon Laser Scanning Microscopy (2PLSM)—A Mai Tai laser (SpectraPhysics) attached to a confocal scanning system (Fluoview 300, Olympus) and an upright microscope (IX51W) was used. Briefly, volume changes and calcium activity were imaged in cortex 100 μm below the pial surface, as described previously, using a 60× (1.1 NA) and a 20× (0.95 NA) lens, respectively. For in vivo volumetry xyzt image series were collected (z-step 1.5 μm, every 5 minutes) with acquisition time<20 seconds and laser power<40 mW. For in vivo calcium imaging, dual channel (rhod-2 and eGFP) frames were collected at 0.2 or 2 Hz. A low sampling rate and <20 mW laser were used to avoid photo damage. […] Therefore, each animal was tested for optimal loading by performing whisker stimulation, to verify a physiological calcium response. Wang et al., “Astrocytic Ca^2+ Signalling Evoked by Sensory Stimulation In Vivo,” Nat. Neurosci. 9:816-823 (2006), which is hereby incorporated by reference in its entirety. A calcium transient was defined as an event where the relative ratio between the rhod-2 and eGFP signal intensities (ΔF/F0) was >2 standard deviations […] from baseline. Beginning and end were defined as ΔF/F0>0.5 π and <0.5 π respectively. Amplitude was taken as the peak ΔF/F0 in this interval. […] Volume and calcium recordings were analyzed using previously described custom-made software (MatLab Inc.).
# cortical slices = settings: 7 mM ammonia in perfusate
# Description: (§3) Electrophysiological Recordings—In vivo recordings were obtained from layer II somatosensory cortex. In situ recordings were obtained from layer II in coronal cortical slices prepared from P21-30 mice. ISMs of K^+ and NH4^+ were pulled from double-barreled pipette glass (PB150-6, WPI) with a tip of 1-3 μm. The pipettes were silanized (coated) with dimethylsilane I (Fluka, Sigma) and filled with either K^+ ionophore I cocktail B (Fluka, selectivity coefficient −1.8 log(K^+/NH4^+)) or NH4+ ionophore I cocktail B (Fluka, −0.9 log(NH4^+/K^+)). […] Ion-sensitive microelectrode (ISM) signals were amplified (FD223a by WPI), externally filtered and digitized as above, and reference field potential traces were subtracted. […] Recordings were analyzed offline using pClamp 10.2.
# (§4) In Situ Electrophysiology—Coronal cortical slices were prepared from P21-30 mice, as described previously. […] All experiments were performed at 32-35° C. […] Whole-cell patch-clamp recordings were done using electrodes with 3-5 M106 resistance, and an intracellular solution containing 135 mM K-methylsulfate, 10 mM KCl, 10 mM hepes, 5 mM NaCl, 2.5 mM Mg-ATP, 0.3 mM Na-GTP (pH 7.3), containing Alexa Fluor® 350 (Invitrogen). Signals were low-pass filtered at 2 kHz and digitized at 10 kHz using Axopatch MultiClamp 700A and Digidata 1320A (Axon Instruments).
# Na^+—K^+-ATPase (NKA) = tested on: Na^+—K^+-ATPase (NKA)
# Description: Cell Culture Assays—Cultured neocortical astrocytes were prepared from P1-2 mouse and rat pups as previously described. Wang et al., “Astrocytes Modulate Neural Network Activity by Ca(2)(+)-Dependent Uptake of Extracellular K(+),” Science Signaling 5:ra26 (2012); Lin et al., “Gap-Junction-Mediated Propagation and Amplification of Cell Injury,” Nat. Neurosci. 1:494-500 (1998), which are hereby incorporated by reference in their entirety. For ^86Rb^+ experiments the cultures were incubated for 10 minutes±ouabain (1 mM). The potassium analogue ^86Rb^+ was then added to each well plate for 15 minutes (1 μCi, Perkin Elmer). The reaction was stopped by placing the cells on ice and washed with ice-cold aCSF. The cells were lysed and ^86Rb^+ uptake quantified by liquid scintillation counting (Beckman Coulter). For Na^+—K^+-ATPase activity, astrocyte cultures were utilized as previously described, and enzyme activity was quantified using the malachite green reaction (Sigma) and analyzed using spectrophotometry. Anupama et al. “Comparison of Na—K ATPase Activity in Rat Brain Synaptosome Under Various Conditions,” Neurochem. Int. 33:283-286 (1998), which is hereby incorporated by reference in its entirety.
# [10] = Otc^spf-ash mice after 7.5 mmol kg^−1 i.p. ammonia load (baseline 0.32±0.07)
# Description: Biochemical and Hemodynamic Analysis—Plasma ammonia analysis was performed on blood samples collected using 50 μL heparinized tubes from the femoral artery. A L-glutamate dehydrogenase based kit (Sigma) was used for the quantification of ammonia in plasma.
# pyramidal neurons = experiment: Whole-cell voltage clamp with ramp voltage and GABA application in acute cortical slices (EGABA); assay type: cell-based, mouse
# Description: as §3, §4
# Otc^spf-ash mice [11] = experiment: Survival after ammonia overdose (Cox regression); assay type: in vivo, mouse
# Description: Where n≧10 for normally distributed data, the unpaired t test or ANOVA were used for independent samples, and paired t test for paired samples. Where n<10 non-parametric tests including Mann-Whitney U and Kruskall-Wallis were used for independent samples, and Wilcoxon signed ranks test for paired samples. Overdose survival was compared using Cox regression model (controlling for the confounding effect of mouse weight).
# To test the validity of the present in situ model, awake animals were tested (FIG. 4A). […] To investigate whether this improvement of neuronal function translated into a clinically relevant improvement in disease phenotype, the phenotype measures outlined in FIGS. 1A-1I were employed.
# [12] = during cortical KCl application (12.5 mM) ± bumetanide 5 μM
# [13] = cortical NH4Cl (10 mM) ± bumetanide
# [14] = systemic NH4Cl (7.5 mmol kg^−1) ± bumetanide
# [15] = cortical superfusion (NH4Cl 10 mM, BUM 5 μM)
# [16] = intraperitoneal injection (NH4Cl 7.5 mmol kg^−1, BUM 30 mg kg^−1)
# [17] = Otc^spf-ash mice, ammonia 7.5 mmol kg^−1 i.p.
# [18] = after washout of cortical NH4Cl (± bumetanide)
# [19] = during cortical NH4Cl application (10 mM) ± bumetanide 5 μM
smiles,measurement,setting,value
[Cl-].[K+] [KCl],Paired-pulse ratio (PPR) after washout,[1]; after washout of cortical KCl,0.63±0.14
same,Paired-pulse ratio (PPR),[1]; [12],1.48±0.22
N [NH4Cl],ME frequency,awake mice; [13],1.02±0.07 ME min^−1
same,ME frequency,awake mice; [14],2.66±0.14 ME min^−1
same,[NH4^+]o,Otc^spf-ash mice [2]; [15],5.82 ± 0.18 mM
same,[NH4^+]o,Otc^spf-ash mice [2]; [16],4.83 ± 0.52 mM
same,Δ[K^+]o,Otc^spf-ash mice [2]; [16],1.93 ± 0.19 mM
same,Δ[K^+]o,"Otc^spf-ash mice [2]; intraperitoneal injection (NH4Cl 7.5 mmol kg^−1, BUM 30 mg kg^−1), listed as ammonia",1.93 ± 0.19 mM
same,Depolarizing effect on EGABA,NKCC1 [3],+1.00±1.07
same,Depolarizing effect on EGABA,NKCC1 [4],+11.14±1.22
same,Brain GABA,[5]; [17],2.46 ± 0.13 μmol g^−1 wet weight
same,Brain Glutamate,[5]; [17],13.24 ± 0.33 μmol g^−1 wet weight
same,Brain Glutamine,[5]; [17],9.25 ± 0.34 μmol g^−1 wet weight
same,Brain GABA,[5]; WT mice,2.19 ± 0.12 μmol g^−1 wet weight
same,Brain Glutamate,[5]; WT mice,12.49 ± 0.15 μmol g^−1 wet weight
same,Brain Glutamine,[5]; WT mice,8.69 ± 0.33 μmol g^−1 wet weight
same,Astrocyte calcium transient Freq.,astrocytes [6],9.03 ± 1.16 Hz cell^−1 × 10^−3
same,Astrocyte calcium transient Freq.,astrocytes [6]; listed as ammonia,9.03±1.16 Hz cell^−1 × 10^−3
same,Astrocyte calcium Cell-cell correlation,astrocytes [6]; awake mice,0.26 ± 0.08
same,Astrocyte calcium transient Amplitude (ΔF/F0),astrocytes [6]; awake mice,0.47 ± 0.32
same,Astrocyte calcium transient Duration,astrocytes [6]; awake mice,21.51 ± 4.55 s
same,Astrocyte calcium Cell-cell correlation,"astrocytes [6]; awake mice, listed as ammonia",0.26±0.08
same,Sensory-motor phenotype score (out of 11),Otc^spf-ash mice [7],9.00±0.46
same,Spontaneous mouse movement,Otc^spf-ash mice [8],0.42±0.22 m min^−1
same,Astrocyte swelling,astrocytes [9],no significant astrocyte swelling
same,Transient astrocyte shrinkage,astrocytes [9],5.04±0.85%
same,Increase in [K^+]o,cortical slices,1.88 ± 0.13 mM
same,Increase in [NH4^+]o,cortical slices,3.67 ± 0.53 mM
same,NKA activity with NH4Cl substituted for KCl,"Na^+—K^+-ATPase (NKA); NH4Cl 15 mM, cell-free",able to maintain normal NKA activity
same,NKA-dependent (ouabain-sensitive) 86Rb^+ uptake,"Na^+—K^+-ATPase (NKA); ammonia 0.5-10 mM, cultured astrocytes",dose-dependent reduction
same,Extracellular ammonia concentration in plasma,[10],4.21 ± 0.59 mM
same,Paired-pulse ratio (PPR) after washout,[1]; [18],0.61±0.15
same,Paired-pulse ratio (PPR),[1]; [19],1.56±0.24
same,Depolarization of EGABA,"pyramidal neurons; ammonia 7 mM in perfusate, pyramidal neurons, ramp voltage 0 to −120 mV",+12.33±3.66 mV
CCCCNc1cc(C(=O)O)cc(S(N)(=O)=O)c1Oc1ccccc1 [bumetanide],Survival after ammonia overdose increased by a factor,"Otc^spf-ash mice [11]; NH4Cl overdose 10 mmol kg^−1, Otc^spf-ash mice",3.87
same,Hazard rate ratio,"Otc^spf-ash mice [11]; NH4Cl overdose 10 mmol kg^−1, 95% confidence interval 0.08 to 0.87",0.26
same,ME frequency,awake mice; [13],0.10±0.02 ME min^−1
same,ME frequency,awake mice; [14],0.32±0.02 ME min^−1
same,[NH4^+]o,Otc^spf-ash mice [2]; [15],0.52 ± 0.11 mM
same,[NH4^+]o,Otc^spf-ash mice [2]; [16],0.42 ± 0.16 mM
same,Δ[K^+]o,Otc^spf-ash mice [2]; [16],0.0073 ± 0.015 mM
same,Brain GABA,[5]; [17],2.39 ± 0.13 μmol g^−1 wet weight
same,Brain Glutamate,[5]; [17],14.27 ± 0.23 μmol g^−1 wet weight
same,Brain Glutamine,[5]; [17],8.70 ± 1.54 μmol g^−1 wet weight
same,Brain GABA,[5]; WT mice,2.55 ± 0.05 μmol g^−1 wet weight
same,Brain Glutamate,[5]; WT mice,14.38 ± 0.22 μmol g^−1 wet weight
same,Brain Glutamine,[5]; WT mice,4.52 ± 0.18 μmol g^−1 wet weight
same,Sensory-motor phenotype score (out of 11),Otc^spf-ash mice [7],6.00±0.72
same,Spontaneous mouse movement,Otc^spf-ash mice [8],3.17±0.46 m min^−1
same,Paired-pulse ratio (PPR) after washout,[1]; [18],0.59±0.17
same,Paired-pulse ratio (PPR),[1]; [12],0.92±0.18
same,Paired-pulse ratio (PPR),[1]; [19],0.88±0.15
same,Effect on ammonia-induced depolarization of EGABA,pyramidal neurons; bumetanide 5 μM pre-incubation,successfully prevented
